From patent publication US10683311B2 (priority 2015, dated 2020)

Assay: log P by HPLC on reversed-phase column (C18), EEC Directive 79/831 Annex V.A8
Assay type: physicochemical
Conditions: logP Method A
Protocol: In table 1, the log P values were determined in accordance with EEC Directive 79/831 Annex V.A8 by HPLC (High Performance Liquid Chromatography) on a reversed-phase column (C18), using the methods described below:
Method A: temperature: 40° C.; mobile phases: 0.1% aqueous formic acid and acetonitrile; linear gradient from 10% acetonitrile to 95% acetonitrile;
Method B: temperature: 40° C.; mobile phases: 0.001 molar ammonium acetate solution in water and acetonitrile; linear gradient from 10% acetonitrile to 95% acetonitrile.
Calibration was carried out using unbranched alkan-2-ones (comprising 3 to 16 carbon atoms) with known log P values (determination of the log P values by the retention times using linear interpolation between two successive alkanones). lambda-max-values were determined using UV-spectra from 200 nm to 400 nm and the peak values of the chromatographic signals.

In order of rising logP:
1. Nc1ccccc1Nc1cnc2ccccc2c1 [IVa.01]  1.28
2. Cc1nc2ccccc2cc1Oc1ccccc1N [IVa.07]  1.66
3. Cc1nc2ccccc2cc1Oc1cccc(F)c1N [IVa.02]  2.15
4. Cc1nc2c(F)c(F)ccc2nc1Oc1c(F)cccc1Br [IIb.04]  2.67
5. Nc1ccccc1Oc1cnc2c(F)c(F)ccc2c1 [IVa.03]  2.71
6. Cc1nc2ccccc2cc1Oc1cccc(F)c1 [VIIa.04]  2.96
7. Nc1c(F)cccc1Oc1cnc2c(F)c(F)ccc2c1 [IVa.04]  3.02
8. Cc1nc2c(F)c(F)ccc2cc1Oc1cccc(F)c1N [IVa.06]  3.27
9. N#Cc1ccc(F)c(Br)c1Oc1cnc2c(F)c(F)ccc2n1 [IIb.21]  3.72
10. Fc1cccc(Oc2cnc3ccccc3n2)c1Br [IIb.14]  3.78
11. N#Cc1cc(Br)c(Oc2cnc3c(F)c(F)ccc3n2)cc1F [IIb.19]  3.81
12. Cc1nc2c(F)c(F)ccc2nc1Oc1cccc(C#N)c1Br [IIb.22]  3.83
13. Fc1ccc2nc(Oc3ccccc3Br)cnc2c1F [IIb.01]  3.92
14. Fc1cccc(Oc2cnc3c(F)c(F)ccc3n2)c1Br [IIb.15]  3.97
15. Cc1nc2c(F)c(F)ccc2nc1Oc1cc(C#N)ccc1Br [IIb.20]  4.03
16. Cc1nc2ccccc2nc1Oc1cccc(F)c1Br [IIb.17]  4.11
17. COc1cccc(Oc2nc3ccc(F)c(F)c3nc2C)c1Br [IIb.13]  4.19
18. Cc1nc2c(F)c(F)ccc2nc1Oc1ccccc1Br [IIb.02]  4.38
19. Cc1nc2c(F)c(F)ccc2nc1Oc1cccc(F)c1Br [IIb.16]  4.44
20. Cc1nc2c(F)c(F)ccc2nc1Oc1ccc(F)cc1Br [IIb.10]  4.54
21. CCOc1nc2ccccc2cc1Oc1cccc(F)c1 [VIIa.02]  4.74
22. Cc1cccc(Br)c1Oc1nc2ccc(F)c(F)c2nc1C [IIb.03]  4.80
23. Cc1nc2c(F)c(F)ccc2nc1Oc1cccc(Cl)c1Br [IIb.18]  4.82
24. Cc1cccc(Oc2nc3ccc(F)c(F)c3nc2C)c1Br [IIb.12]  4.85
25. Cc1nc2c(F)c(F)ccc2nc1Oc1c(Cl)cccc1Br [IIb.05]  4.87
26. Cc1ccc(Oc2nc3ccc(F)c(F)c3nc2C)c(Br)c1 [IIb.09]  4.92
27. CSc1nc2ccccc2cc1Oc1cccc(F)c1 [VIIa.03]  4.92
28. Cc1nc2c(F)c(F)ccc2nc1Oc1cccc(OC(F)(F)F)c1Br [IIb.23]  5.08
29. C[Si](C)(Cc1ccccc1)c1ccccc1O [IXa.06]  5.14
30. Cc1nc2c(F)c(F)ccc2nc1Oc1ccc(Cl)cc1Br [IIb.11]  5.16

Same assay, conditions: logP Method B

Molecule `CC[Si](C)(C)c1ccccc1O` [IXa.04] has a logP of 3.90.

Same assay, conditions: reversed-phase HPLC column (C18), Method A: 40° C., 0.1% aqueous formic acid and acetonitrile

In order of falling chromatographic logP:
1. Fc1cccc(Oc2cc3ccccc3nc2Cl)c1 [VIIa.01, 2-chloro-3-(3-fluorophenoxy)quinoline]  3.99
2. Fc1cccc(Oc2cnc3ccccc3c2)c1 [VIIa.05, 3-(3-fluorophenoxy)quinoline]  3.21
3. Cc1nc2c(F)c(F)ccc2cc1Oc1ccccc1N [IVa.05, 2-[(7,8-difluoro-2-methylquinolin-3-yl)oxy]aniline]  2.99

Same assay, conditions: reversed-phase HPLC column (C18), logP Method A

In order of falling chromatographic logP:
1. CC[Si](CC)(CC)c1ccccc1O [IX.01A]  4.72
2. CC[Si](CC)(CC)c1c(O)cccc1F [IX.02A]  4.69
3. Fc1cccc(Oc2cc3ccccc3nc2Cl)c1 [VIIa.01, 2-chloro-3-(3-fluorophenoxy)quinoline]  3.99
4. Fc1cccc(Nc2cc3ccccc3nc2C(F)F)c1 [VII.03A]  3.68
5. Fc1cccc(Oc2cnc3ccccc3c2)c1 [VIIa.05, 3-(3-fluorophenoxy)quinoline]  3.21
6. Cc1nc2c(F)c(F)ccc2cc1Oc1ccccc1N [IVa.05, 2-[(7,8-difluoro-2-methylquinolin-3-yl)oxy]aniline]  2.99
7. O=C(c1cccc(F)c1)c1cnc2ccccc2c1 [VII.02A]  2.73
8. O=S(=O)(c1cccc(F)c1)c1cnc2ccccc2c1 [VII.05A]  2.68
9. [O-][S+](c1cccc(F)c1)c1cnc2ccccc2c1 (centres unmarked) [VII.04A]  2.1
10. OC(c1cccc(F)c1)c1cnc2ccccc2c1 (centres unmarked) [VII.01A]  1.54
